The source of these data is patent US11485742B2, “2-azaspiro[3.4]octane derivatives as M4 agonists” (NOVARTIS AG, priority 2019, dated 2022).

Broadly, the EC50 is the concentration needed to bring the measured effect to its halfway point.

The target of assay [1] is T1, Cloned human M1 receptor (CHRM1) (Homo sapiens, UniProt P11229).
T1 construct: expressed in transfected cells; host or cells: HEK293
T1 sequence (P11229 1-460): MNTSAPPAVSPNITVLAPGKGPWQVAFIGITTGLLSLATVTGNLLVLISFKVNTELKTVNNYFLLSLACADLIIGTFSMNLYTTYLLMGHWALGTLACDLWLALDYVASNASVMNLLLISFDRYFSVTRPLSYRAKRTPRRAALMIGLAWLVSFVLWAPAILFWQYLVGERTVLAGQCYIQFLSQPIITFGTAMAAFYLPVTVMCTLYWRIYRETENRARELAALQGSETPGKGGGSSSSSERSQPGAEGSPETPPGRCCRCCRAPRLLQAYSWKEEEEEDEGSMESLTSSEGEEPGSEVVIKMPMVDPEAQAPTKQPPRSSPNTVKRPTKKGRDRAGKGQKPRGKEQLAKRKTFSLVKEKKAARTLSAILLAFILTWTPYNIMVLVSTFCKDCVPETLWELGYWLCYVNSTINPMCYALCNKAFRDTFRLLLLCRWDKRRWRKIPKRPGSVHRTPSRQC
Kind of assay: CHRM1 Ca++ Flux Assay (HEK293 M1 cells, agonist mode). The assay is classed as cell-based. The conditions noted are these: for Emax: read-out: M1 FDSS PA %; for EC50: geometric mean if tested more than once, read-out: M1 FDSS EC50. As for the experimental part: (§1) The above examples were characterized by measuring the intracellular mobilization of Ca^++ ions caused by signaling events mediated by the receptor. The Intra-cellular Calcium flux levels were captured by the highly sensitive Ca^++ indicator, Calcium Assay Kit (BD Biosciences; Catalog Number 640178. The fluorescent activity from all receptors were monitored by the fluorescent imager, FDSS 7000EX (Hamamatsu) over a span of 3 minutes. The change in Calcium flux was readily captured upon activation with the muscarinic orthosteric agonist, Carbachol.
Cloned human M1 receptor (CHRM1) was stably expressed in HEK293 cells and were grown and maintained in a monolayer culture with DMEM/High Glucose (Life Technologies) supplemented with 10% Fetal Bovine Serum, 1×Pen-Strep, and 0.5 mg/mL Geneticin in a humidified atmosphere (5% CO2) at 37° C. The cultures were grown to 90% confluency in T150 flasks (Corning) and washed with 1×DPBS and lifted with 0.05% Trypsin (Life Technologies). The cells were then spun (1K rpm, 3 minutes) and frozen using Recovery Cell Culture Freezing Media (Gibco Technologies). Cells were stored in liquid nitrogen and thawed a day before the assay.
Prior to the day of the assay, stable HEK293 M1 cells were thawed and plated on 384 well black walled clear bottom TC treated plates (Greiner Cat #781091) at 25K cells/well with DMEM/High Glucose supplemented with 10% FBS (Hyclone) Pen-Strep (Life Technologies) and kept overnight in a humidified atmosphere (5% CO2) at 37° C. The following day, cells were loaded with 20 uL Ca^++ dye (BD Biosciences) using Loading Buffer (HBSS +Ca/+Mg, 20 mM HEPES) and placed back in cell incubator for a minimum of 1 hour. The dye was replaced with 45 μL Assay Buffer (HBSS −Ca/−Mg, 20 mM HEPES) and kept at room temperature prior to running on cell imager. Compounds were prepared in Assay Buffer and 5 uL was added to the cells. The FDSS 7000EX (Hamamatsu) was used to acquire Ca++ traces for 3 minutes from cells treated with 11 point dose in triplicate in order to generate dose response curves in agonist mode. All compounds were serially diluted in DMSO then prepared in Assay Buffer for Ca^++ flux studies. The dose response curves were generated from the average of triplicate wells obtained from each data point and used a non-linear regression of four parameter dose response algorithm. The Percent Activity (PA) was measured to EC100 of Carbachol.
(§2) If an Example was tested more than once in an assay, then the values below represent the geometric mean of the results from each independent experiment.

Assay [2] has as its target T2, human cloned CHRM4 receptor (Homo sapiens, UniProt P08173).
T2 construct: expressed in transfected cells; host or cells: CHO-K1 (M4_CHO)
T2 sequence (P08173 1-479): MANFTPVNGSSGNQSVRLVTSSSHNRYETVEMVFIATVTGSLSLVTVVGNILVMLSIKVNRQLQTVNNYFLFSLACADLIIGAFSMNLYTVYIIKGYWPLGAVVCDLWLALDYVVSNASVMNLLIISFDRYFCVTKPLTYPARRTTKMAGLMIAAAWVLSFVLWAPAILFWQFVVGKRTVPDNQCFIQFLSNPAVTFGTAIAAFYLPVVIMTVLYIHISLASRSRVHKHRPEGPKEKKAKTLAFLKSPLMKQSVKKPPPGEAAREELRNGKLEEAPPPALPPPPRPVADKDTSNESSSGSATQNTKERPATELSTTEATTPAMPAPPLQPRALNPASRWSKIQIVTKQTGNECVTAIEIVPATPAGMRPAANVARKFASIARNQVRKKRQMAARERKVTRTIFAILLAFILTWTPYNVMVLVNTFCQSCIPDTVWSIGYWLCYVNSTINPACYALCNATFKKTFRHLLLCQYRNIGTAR
Kind of assay: CHRM4 Ca++ Flux Assay (M4_CHO cells, agonist mode). The assay is classed as cell-based. The conditions noted are these: for Emax: read-out: M4 FDSS PA %; for EC50: geometric mean if tested more than once, read-out: M4 FDSS EC50. As for the experimental part:
as §1
CHO-K1 cells stably expressing the human cloned CHRM4 receptor (M4_CHO cells) were grown and maintained in a monolayer culture with F12/HAM (Life Technologies) supplemented with 10% Fetal Bovine Serum, 1X Pen-Strep, and 0.4 mg/mL Geneticin in a humidified atmosphere (5% CO2) at 37° C. The cultures were grown to 80-90% confluency in T150 flasks (Corning) and washed with 1×DPBS then lifted with 0.05% Trypsin (Life Technologies). The cells were harvested in growth media then spun (1K rpm, 3 minutes) and cryopreserved using Recovery Cell Culture Freezing Media (Gibco Technologies). Cells were stored in liquid nitrogen and thawed a day before the assay.
Prior to the day of the assay, stable M4_CHO cells were thawed and plated on 384 well black walled clear bottom TC treated plates (Greiner Cat #781091) at 12K cells/well using F12/HAM Media supplemented with 10% FBS (Life Technologies) and kept overnight in a humidified atmosphere (5% CO2) at 37° C. The next day, cells were loaded with 20 μL Ca^++ dye (BD Biosciences) using Loading Buffer (HBSS +Ca/+Mg, 20 mM HEPES, 2.5 mM Probenecid) and placed back in cell incubator for a minimum of 1 hour. After incubation, the dye was replaced with 45 μL Assay Buffer (HBSS −Ca/−Mg, 20 mM HEPES, 2.5 mM Probenecid) supplemented with 20 μM ATP (Sigma Aldrich) and kept at room temperature in the dark for 60 minutes before running on a cell imager. The FDSS 7000EX (Hamamatsu) was used to capture Ca^++ traces for a span of 3 minutes from cells treated with 11 point dose of compound in triplicate in order to generate dose response curves in agonist mode. All compounds were serially diluted in DMSO then prepared in Assay Buffer for Ca^++ flux studies. The dose response curves were generated from the average of triplicate wells obtained from each data point and used a non-linear regression of four parameter dose response algorithm. The Percent Activity (PA) was measured to EC100 of Carbachol.
as §2

In the case of `Fc1cc(F)c(OC2COC2)c(C2CCN([C@@H]3COC4(C3)CN(c3nnco3)C4)CC2)c1` [Example 2EE, (S)-7-(4-(3,5-difluoro-2-(oxetan-3-yloxy)phenyl)piperidin-1-yl)-2-(1,3,4-oxadiazol-2-yl)-5-oxa-2-azaspiro[3.4]octane], the Emax in assay [1] (Percent Activity (PA)) amounted to 95%; in assay [2] (Percent Activity (PA)) it was 74%. The EC50 in assay [1] worked out at 2340 nM; in assay [2], 86 nM.
For the compound `Fc1ccc(OC[C@@H]2COCCO2)c(C2CCN([C@@H]3COC4(C3)CN(c3nncs3)C4)CC2)c1` [Example 5L, (S)-7-(4-(2-(((S)-1,4-dioxan-2-yl)methoxy)-5-fluorophenyl)piperidin-1-yl)-2-(1,3,4-thiadiazol-2-yl)-5-oxa-2-azaspiro[3.4]octane], the Emax in assay [1] (Percent Activity (PA)) is 88%; in assay [2] (Percent Activity (PA)), 79%. Further, the concentration giving a half-maximal response (EC50) in assay [1] worked out at 370 nM; in assay [2] it was 38 nM.
For `COc1ccc(F)cc1C1CCN([C@@H]2COC3(C2)CN(c2ncco2)C3)CC1` [Example 4I, (S)-7-(4-(5-fluoro-2-methoxyphenyl)piperidin-1-yl)-2-(oxazol-2-yl)-5-oxa-2-azaspiro[3.4]octane], the Emax in assay [1] (Percent Activity (PA)) was found to be 82%; in assay [2] (Percent Activity (PA)), 73%. The EC50 is 227 nM in assay [1] and 19 nM in assay [2].
Regarding `Cc1nc(COc2ccccc2C2CCN([C@@H]3COC4(C3)CN(c3nncs3)C4)CC2)no1` [Example 5F, (S)-7-(4-(2-((5-methyl-1,2,4-oxadiazol-3-yl)methoxy)phenyl)piperidin-1-yl)-2-(1,3,4-thiadiazol-2-yl)-5-oxa-2-azaspiro[3.4]octane], the Emax in assay [1] (Percent Activity (PA)) worked out at 106%; in assay [2] (Percent Activity (PA)) it was 90%. Further, the EC50 in assay [1] was 11 nM; in assay [2] it was less than 0.4 nM.
As to `COc1cc(F)ccc1C1CCN([C@@H]2COC3(C2)CN(c2nncs2)C3)CC1` [Example 5T, (S)-7-(4-(4-fluoro-2-methoxyphenyl)piperidin-1-yl)-2-(1,3,4-thiadiazol-2-yl)-5-oxa-2-azaspiro[3.4]octane], the Emax in assay [1] (Percent Activity (PA)) was 57%; in assay [2] (Percent Activity (PA)), 61%. In addition, the half-maximal effective concentration (EC50) is 1790 nM in assay [1] and 208 nM in assay [2].
As for `Fc1ccc(OC2COC2)c(C2CCN([C@@H]3COC4(C3)CN(c3nncs3)C4)CC2)c1` [Example 5G, (S)-7-(4-(5-fluoro-2-(oxetan-3-yloxy)phenyl)piperidin-1-yl)-2-(1,3,4-thiadiazol-2-yl)-5-oxa-2-azaspiro[3.4]octane], the values for the Emax in assay [1] (Percent Activity (PA)) and in assay [2] (Percent Activity (PA)) were 88% and 76%, respectively. The concentration giving a half-maximal response (EC50) came to 311 nM in assay [1] and 13 nM in assay [2].
The corresponding values for `Fc1ccc(C2CCOCC2)c(C2CCN([C@@H]3COC4(C3)CN(c3ncco3)C4)CC2)c1` [Example 4W, (S)-7-(4-(5-fluoro-2-(tetrahydro-2H-pyran-4-yl)phenyl)piperidin-1-yl)-2-(oxazol-2-yl)-5-oxa-2-azaspiro[3.4]octane] are 74%, 75%, 1090 nM and 21 nM.
Turning to `c1ccc(C2CCN([C@@H]3COC4(C3)CN(c3ncco3)C4)CC2)c(-c2cncnc2)c1` [Example 4R, (S)-2-(oxazol-2-yl)-7-(4-(2-(pyrimidin-5-yl)phenyl)piperidin-1-yl)-5-oxa-2-azaspiro[3.4]octane], the Emax was 95% in assay [1] (Percent Activity (PA)) and 70% in assay [2] (Percent Activity (PA)). Moreover, the figures for the concentration for a half-maximal effect (EC50) in assay [1] and in assay [2] were 128 nM and 3 nM, respectively.
`COc1ccc(Cl)cc1C1CCN([C@@H]2COC3(C2)CN(c2ncns2)C3)CC1` [Example 5A, (S)-7-(4-(5-chloro-2-methoxyphenyl)piperidin-1-yl)-2-(1,2,4-thiadiazol-5-yl)-5-oxa-2-azaspiro[3.4]octane]: the Emax in assay [1] (Percent Activity (PA)) is 70%; in assay [2] (Percent Activity (PA)), 60%. For the same compound, the half-maximal effective concentration (EC50) in assay [1] turned out to be 630 nM; in assay [2] it was 74 nM.
For the compound `O[C@H]1CC[C@@H](c2ccc(F)cc2C2CCN([C@@H]3COC4(C3)CN(c3nnco3)C4)CC2)CC1` (single isomer, unassigned) [Example 3H, (1R,4s)-4-(2-(1-((S)-2-(1,3,4-oxadiazol-2-yl)-5-oxa-2-azaspiro[3.4]octan-7-yl)piperidin-4-yl)-4-fluorophenyl)cyclohexan-1-ol or (1S,4r)-4-(2-(1-((S)-2-(1,3,4-oxadiazol-2-yl)-5-oxa-2-azaspiro[3.4]octan-7-yl)piperidin-4-yl)-4-fluorophenyl)cyclohexan-1-ol], in assay [1] (Percent Activity (PA)), the “M1 FDSS PA %” value came out at 84%. The concentration giving a half-maximal response (EC50) was 2410 nM in assay [1] and 10 nM in assay [2]. Further, in assay [2] (Percent Activity (PA)), the “M4 FDSS PA %” value was 83.2%.
As to `COC(C)(C)CCOc1ccc(F)cc1C1CCN([C@@H]2COC3(C2)CN(c2nncs2)C3)CC1` [Example 5N, (S)-7-(4-(5-fluoro-2-(3-methoxy-3-methylbutoxy)phenyl)piperidin-1-yl)-2-(1,3,4-thiadiazol-2-yl)-5-oxa-2-azaspiro[3.4]octane], the Emax stood at 68% in assay [1] (Percent Activity (PA)) and 61% in assay [2] (Percent Activity (PA)). Besides, the figures for the EC50 in assay [1] and in assay [2] were 2970 nM and 68 nM, respectively.
